From PMC8877094, “Antiparasitic Ovalicin Derivatives from Pseudallescheria boydii, a Mutualistic Fungus of French Guiana Termites” (Molecules, 2022)
Read-outs that look alike come from different tables or passages of the source.

Tests used:
Assay type in all cases: cell-based
[1] = system: Plasmodium falciparum FcB1/Colombia strain; experiment: In vitro growth inhibition of chloroquine-resistant P. falciparum ([3H]-hypoxanthine incorporation); settings: FCB1, Erythrocyte, 48 h
Experimental: The FcB1/Colombian strain of Plasmodium falciparum was maintained in vitro in human erythrocytes in an RPMI 1640 reaction mixture supplemented with 8% (v/v) heat-inactivated human serum at 37 °C under an atmosphere of 3% CO2, 6% O2, and 91% N2. The chloroquine-resistant strain FcB1/Colombia of Plasmodium falciparum was obtained from the National Museum Natural History collection, Paris, France (n°MNHN-CEU-224-PfFCB1). Parasites were maintained in vitro on human A+ erythrocytes in RPMI 1640 medium supplemented by 8% (v/v) heat-inactivated human serum at 37 °C under an atmosphere of 3% CO2, 6% O2, and 91% N2. Human red blood cells and serum were provided by the Etablissement Français du Sang, Ile de France (EFS, Paris, France) under the C-CPSL-UNT approval n°13/EFS/126. In vitro drug susceptibility assays were measured by [^3H]-hypoxanthine incorporation as described previously. Drug solutions were prepared in DMSO at a 10 mM concentration. Compounds were serially diluted 2-fold with 100 μL culture medium in 96-well plates. Asynchronous parasite cultures (100 μL, 1% parasitemia and 1% final hematocrit) were then added to each well and incubated for 24 h at 37 °C prior to the addition of 0.5 μCi of [^3H]-hypoxanthine (GE Healthcare, Tremblay-en-France, France, 1 to 5 Ci·mmol/mL) per well. After a further incubation of 24 h, plates were frozen and thawed. Cell lysates were then collected onto fiberglass filters and counted in a liquid scintillation spectrometer. The growth inhibition for each drug concentration was determined by comparison of the radioactivity incorporated in the treated culture with that in the control culture maintained on the same plate. The concentration causing 50% growth inhibition (IC50) was obtained from the drug concentration–response curve, and the results are expressed as the mean values ± standard deviations determined from several independent experiments.

[2] = system: Human umbilical vein endothelial cells (HUVECs); experiment: Cytotoxic assay on HUVECs (CellTiter-Blue); settings: HUVEC, read-out: HUVECs (IC50 µM)
Experimental: Human umbilical vein endothelial cells (HUVECs) were obtained from Clonetics (Lonza; Walkersville, MD, USA) and cultured according to the supplier’s instructions. Briefly, HUVECs from three to six passages were subcultured to confluence onto 0.2% gelatin-coated tissue culture flasks in endothelial cell growth medium (EGM2) containing growth factors and 2% FCS. All cell lines were maintained at 37 °C in a humidified atmosphere containing 5% CO2. Cell viability was assessed using Promega (Promega France, Charbonnière-les-Bains, France) CellTiter-BlueTM reagent according to the manufacturer’s instructions. Cells were seeded in 96-well plates (5 × 10^3 cells per well) containing […] growth medium. After 24 h of culture, the cells were supplemented with […] of test compound dissolved in DMSO (<0.1% in each preparation). After incubation for 72 h, […] resazurin was added for 2 h before recording fluorescence (λex = 560 nm, λem = 590 nm) using a Victor microtiter plate fluorimeter (PerkinElmer France, Villebon-sur-Yvette, France). IC50 values correspond to the concentration of test compound that elicited a 50% decrease in fluorescence for drug-treated cells relative to untreated cells. Experiments were performed in triplicate.

[3] = system: Trypanosoma brucei brucei strain 93 bloodstream forms; experiment: In vitro inhibition of T. brucei brucei growth (AlamarBlue/resazurin); settings: bloodstream forms strain 93, 72 h incubation + 4 h resazurin, mean ± SD of three independent experiments
Experimental: Bloodstream forms of Trypanosoma brucei brucei strain 93 were cultured in HMI9 medium supplemented with 10% FCS at 37 °C under an atmosphere of 5% CO2. In all experiments, log-phage cell cultures were harvested by centrifugation at 3000× g and immediately used. Drug assays were based on the conversion of a redox-sensitive dye (resazurin) to a fluorescent product by viable cells and were performed according to the manufacturer recommendations (AlamarBlue® Assay, Invitrogen Corporation, Carlsbad, CA, USA). Drug stock solutions were prepared in pure DMSO. […] After a 72 h incubation, resazurin solution was added to each well at with a final concentration of 45 μM. Fluorescence was measured at 530 nm excitation and 590 nm emission wavelengths after a further 4 h incubation. The percentage of inhibition of the parasite growth rate was calculated by comparing the fluorescence of parasites maintained in the presence of drug with that in the absence of drug. DMSO was used as control. […] IC50s were determined from the dose–response curves with drug concentrations ranging from 100 μM to 50 nM. The IC50 value is the mean ± the standard deviation of three independent experiments.

[4] = cell viability, 72 h incubation, CellTiter-Blue, triplicate
[5] = chloroquine-resistant FcB1/Colombia strain, human erythrocytes, 24 h + 24 h with [3H]-hypoxanthine, mean ± SD, read-out: P. falciparum (IC50 µM)

Row | IC50 [1, 5] [µM] | IC50 ([3]; 72 h) [µM] | IC50 [3] [µM] | Compound | IC50 ([1]; read-out: P. falciparum (IC50 µM), chloroquine-resistant FcB1/Colombia strain, human erythrocytes, 24 h + 24 h with [3H]-hypoxanthine, mean ± SD) [µM] | IC50 [2, 4] [µM] | IC50 ([2]; 72 h) [µM]
1 |  |  |  | CO[C@@H]1C(=O)CC[C@]2(CO2)[C@@]1(O)[C@@]1(C)O[C@@H]1CC=C(C)C [Compound 1, Ovalicin] | < 20.6 | 13 ± 2 | 
2 | < 20.6 | < 1.1 |  | CCCCC/C=C\C/C=C\CCCCCCCC(=O)OC[C@@]1(O)CCC(=O)[C@@H](OC)[C@]1(O)[C@@]1(C)O[C@@H]1CC=C(C)C [Compound 2, Ovalicin linoleate] |  | 37 ± 3 | 
3 | > 50 | 4.8 ± 2.7 |  | CCCCCCCC/C=C\CCCCCCCC(=O)OC[C@@]1(O)CCC(=O)[C@@H](OC)[C@]1(O)[C@@]1(C)O[C@@H]1CC=C(C)C [Compound 3, Ovalicin oleate] |  | 45 ± 2 | 
4 | < 20.6 | 4.1 ± 2.1 |  | CCCCCCCCCCCCCCCCCC(=O)OC[C@@]1(O)CCC(=O)[C@@H](OC)[C@]1(O)[C@@]1(C)O[C@@H]1CC=C(C)C [Compound 4] |  | 70 ± 1 | 
5 |  |  |  | CO[C@@H]1[C@H](OC(=O)/C=C/C=C/C=C/C=C/C(=O)O)CC[C@]2(CO2)[C@H]1[C@@]1(C)O[C@@H]1CC=C(C)C [Fumagillin, reference compound] |  |  | 0.006 ± 0.002
6 |  |  | 0.011 ± 0.0017 | N=C(N)c1ccc(OCCCCCOc2ccc(C(=N)N)cc2)cc1 [Pentamidine, reference compound] |  |  | 
